Test results taken from ChEMBL document CHEMBL1125565, “Hypoxia-selective antitumor agents. 6. 4-(Alkylamino)nitroquinolines: a new class of hypoxia-selective cytotoxins” (J Med Chem, 1992).

Experiments:
[1] = system: Nucleic Acid
Description: (§1) Inhibitory concentration against DNA-bound ethidium bromide

[2] = physchem; details: aqueous solution
Description: (§2) Compound was evaluated for quinoline pKa value in aqueous solution at 25 degree Celsius by spectrophotometry

[3] = system: CHO-AA8; assay: cells; details: Cricetulus griseus, CHO-AA8, 18 h
Description: Growth inhibition in CHO subline AA8 cells exposed for 18 hr under aerobic(air) conditions

[4] = physchem; details: aqueous solution; remark: listed apart in the source
Description: as §2

[5] = system: CHO-AA8; assay: cells; details: Cricetulus griseus, CHO-AA8, 18 h; remark: listed apart in the source
Description: Growth inhibitory activity against CHO subline AA8 cells exposed for 18 hr under aerobic conditions

[6] = system: Nucleic Acid; remark: listed apart in the source
Description: as §1

Row | SMILES | C50 [1] [µM] | pKa [2] | IC50 [3] [µM] | pKa [4] | IC50 [5] [µM] | C50 [6] [µM]
1 | CN(C)CCCNc1c([N+](=O)[O-])cnc2ccccc12 | 5 | 4.43 | 34 | – | – | –
2 | CN(C)CCN(C)c1ccnc2cccc([N+](=O)[O-])c12 | 3.9 | – | 95 | 4.86 | – | –
3 | CNc1ccc([N+](=O)[O-])c2c(NCCCN(C)C)ccnc12 | – | – | – | 4.22 | 98 | –
4 | COc1ccc([N+](=O)[O-])c2c(NCCCN(C)C)ccnc12 | – | – | 6.8 | 6.76 | – | –
5 | Cc1cc2nccc(NCCCN(C)C)c2cc1[N+](=O)[O-] | 2.3 | – | 28 | 7.38 | – | –
6 | CN(C)CCCNc1ccnc2cccc([N+](=O)[O-])c12 | 1.1 | 6.39 | 12.4 | – | – | –
7 | Cc1cc(NCCCN(C)C)c2c([N+](=O)[O-])cccc2n1 | 1.1 | – | 6.6 | 6.41 | – | –
8 | CN(C)CCCNc1ccnc2ccccc12 | 4.6 | 8.85 | 125 | – | – | –
9 | CN(C)CCCNc1cc[n+](C)c2cccc([N+](=O)[O-])c12 | – | – | – | – | 5.8 | 3.6
10 | CN(C)CCCNc1ccnc2cc([N+](=O)[O-])ccc12 | 0.9 | 6.77 | 46 | – | – | –
11 | CN(C)CCCNc1c2ccccc2nc2cccc([N+](=O)[O-])c12 [NITRACRINE] | – | – | – | – | 0.024 | –
12 | Cc1c([N+](=O)[O-])ccc2c(NCCCN(C)C)ccnc12 | 2.9 | – | 21 | 6.71 | – | –
13 | CN(C)CCCCNc1ccnc2cccc([N+](=O)[O-])c12 | 3.1 | – | 9 | 6.71 | – | –
14 | Cc1cnc2cccc([N+](=O)[O-])c2c1NCCCN(C)C | 1 | – | 33 | 6.01 | – | –
15 | CN(C)CCCNc1ccnc2c([N+](=O)[O-])cccc12 | 1.2 | – | 93 | 6.91 | – | –
16 | COCC(O)Cn1ccnc1[N+](=O)[O-] (configuration not stated) [MISONIDAZOLE] | – | – | 12100 | – | – | –
17 | CN(C)CCCNc1ccnc2ccc([N+](=O)[O-])cc12 | 1 | 6.99 | 34 | – | – | –
18 | Cc1ccc2nccc(NCCCN(C)C)c2c1[N+](=O)[O-] | 3.1 | – | 170 | 6.15 | – | –
19 | Cc1nc2ccccc2c(NCCCN(C)C)c1[N+](=O)[O-] | 8.6 | – | 226 | 5.35 | – | –
20 | CN(C)CCNc1ccnc2cccc([N+](=O)[O-])c12 | 1.5 | – | 20.9 | 5.77 | – | –
21 | Cc1ccc2c(NCCCN(C)C)ccnc2c1[N+](=O)[O-] | 4.6 | – | 253 | 5.51 | – | –
22 | Cc1ccc([N+](=O)[O-])c2c(NCCCN(C)C)ccnc12 | 3 | – | 29 | 6.84 | – | –
23 | CN(C)CCCNc1ncnc2cccc([N+](=O)[O-])c12 | 4.3 | – | 82 | 4.05 | – | –
